This note sets out measurements from EP0292291B1, “Linear and cyclic analogs of alpha-msh fragments with extraordinary potency” (UNIVERSITY PATENTS, INC., priority 1987, dated 1988).

Non-standard residues stand in square brackets, D forms with d. Residues, ends and D or L forms follow the SMILES beside them. Nle = CCCC[C@H](N)C(=O)O

Test [1] has as its system Frog (Rana pipiens) Skin. Type of test: cell-based. To be noted: linear analogues; for Residual Activity Frog: P = prolonged action; for Biological Potency Frog: relative to alpha-MSH = 1.0. From the text:
(§1) Based upon the structural relationship of alpha-MSH (and its analogues and fragments) to its biological potency, using in vitro a frog skin bioassay system, the active site of alpha-MSH appears to be the common active core sequence suitably modified Ac-Met-Glu-His-Phe-Arg-Trp-Gly-NH₂. This fragment (Alpha-MSH₄₋₁₀) has been synthesized and tested for its melanocyte stimulating activity in frog skin and shown to be a weak agonist when compared to the native hormone. The amino acid exchanges in position 5(Glu) and 10(Gly) have not, previous to the making of the present invention, been investigated. […] The following table summarizes some of these studies.
(§2) The biological potencies of alpha-MSH, the linear, and the cyclic analogues were determined by their ability to stimulate melanosome dispersion in vitro in the frog and lizard bioassays. These in vitro assays provide clear cut dose response curves (between 2.5 x 10⁻¹¹ and 4 x 10⁻¹⁰ M) and can detect minimal concentration of alpha-MSH of about 10⁻¹¹ M. The assays are based upon the centrifugal dispersion of melanosomes (melanin granules) within the dendritic processes of integumental dermal melanophores leading to darkening of the skin. All the test solutions were prepared via serial dilutions from a stock solution (10⁻⁴ M). The frogs (Rans pipiens) used in these evaluations were obtained from Kons Scientific, Germantown, WI, and the lizards (Anolis carolinensis) were from the Snake Farm, La Place, LA.

Test [2] concerns Lizard (Anolis carolinensis) Skin. Type of test: cell-based. To be noted: linear analogues; for Residual Activity Lizard: P = prolonged action; for Biological Potency Lizard: relative to alpha-MSH = 1.0.
Description: as §1, §2

For the compound `CCCC[C@H](NC(=O)[C@H](CO)NC(=O)[C@H](Cc1ccc(O)cc1)NC(=O)[C@H](CO)NC(C)=O)C(=O)N[C@@H](CCC(=O)O)C(=O)N[C@@H](Cc1c[nH]cn1)C(=O)N[C@H](Cc1ccccc1)C(=O)N[C@@H](CCCNC(=N)N)C(=O)N[C@@H](Cc1c[nH]c2ccccc12)C(=O)N[C@@H](CCCCN)C(=O)NCC(=O)N1CCC[C@H]1C(=O)N[C@H](C(N)=O)C(C)C` [Analogue 1] (Ac-SYS[Nle]EH[dF]RWKGPV-NH2), in test [1], the “Residual Activity Frog” value is “P(+)” and the “Biological Potency Frog” value turned out to be 6.0. Also, in test [2], the “Residual Activity Lizard” value is recorded as “P(-)” and the “Biological Potency Lizard” value is recorded as 8.0.
Consider `CCCC[C@H](NC(=O)[C@H](CO)NC(=O)[C@H](Cc1ccc(O)cc1)NC(=O)[C@H](CO)NC(C)=O)C(=O)N[C@@H](CC(=O)O)C(=O)N[C@@H](Cc1c[nH]cn1)C(=O)N[C@H](Cc1ccccc1)C(=O)N[C@@H](CCCNC(=N)N)C(=O)N[C@@H](Cc1c[nH]c2ccccc12)C(=O)N[C@@H](CCCCN)C(=O)NCC(=O)N1CCC[C@H]1C(=O)N[C@H](C(N)=O)C(C)C` [Analogue 2] (Ac-SYS[Nle]DH[dF]RWKGPV-NH2), for which, in test [1], the “Residual Activity Frog” value is given as “P(+)” and the “Biological Potency Frog” value came out at 9.0. Also, in test [2], the “Residual Activity Lizard” value is reported as “P(-)” and the “Biological Potency Lizard” value is recorded as 8.0.
On to `CCCC[C@H](NC(C)=O)C(=O)N[C@@H](CCC(=O)O)C(=O)N[C@@H](Cc1c[nH]cn1)C(=O)N[C@H](Cc1ccccc1)C(=O)N[C@@H](CCCNC(=N)N)C(=O)N[C@@H](Cc1c[nH]c2ccccc12)C(=O)N[C@@H](CCCCN)C(=O)NCC(=O)N1CCC[C@H]1C(=O)N[C@H](C(N)=O)C(C)C` [Analogue 3] (Ac-[Nle]EH[dF]RWKGPV-NH2), for which, in test [1], the “Residual Activity Frog” value was “P(+)” and the “Biological Potency Frog” value was 0.8. In test [2], the “Residual Activity Lizard” value is given as “P(+)” and the “Biological Potency Lizard” value was determined as 8.0.
Consider `CCCC[C@H](NC(C)=O)C(=O)N[C@@H](CC(=O)O)C(=O)N[C@@H](Cc1c[nH]cn1)C(=O)N[C@H](Cc1ccccc1)C(=O)N[C@@H](CCCNC(=N)N)C(=O)N[C@@H](Cc1c[nH]c2ccccc12)C(=O)N[C@@H](CCCCN)C(=O)NCC(=O)N1CCC[C@H]1C(=O)N[C@H](C(N)=O)C(C)C` [Analogue 4] (Ac-[Nle]DH[dF]RWKGPV-NH2), for which, in test [1], the “Residual Activity Frog” value is on record as “P(+)” and the “Biological Potency Frog” value came to 1.0. In test [2], the “Residual Activity Lizard” value is listed as “P(+)” and the “Biological Potency Lizard” value came out at 10.0.
On to `CCCC[C@H](NC(C)=O)C(=O)N[C@@H](CC(=O)O)C(=O)N[C@@H](Cc1c[nH]cn1)C(=O)N[C@H](Cc1ccccc1)C(=O)N[C@@H](CCCNC(=N)N)C(=O)N[C@@H](Cc1c[nH]c2ccccc12)C(=O)NCC(N)=O` [Analogue 5], for which, in test [1], the “Residual Activity Frog” value is recorded as “P(-)” and the “Biological Potency Frog” value was determined as 0.1. In test [2], the “Residual Activity Lizard” value is “P(-)” and the “Biological Potency Lizard” value worked out at 8.0.
Take `CCCC[C@H](NC(C)=O)C(=O)N[C@@H](CCC(=O)O)C(=O)N[C@@H](Cc1c[nH]cn1)C(=O)N[C@H](Cc1ccccc1)C(=O)N[C@@H](CCCNC(=N)N)C(=O)N[C@@H](Cc1c[nH]c2ccccc12)C(=O)N[C@@H](CCCCN)C(N)=O` [Analogue 6]: in test [1], the “Residual Activity Frog” value is recorded as “P(-)” and the “Biological Potency Frog” value is 0.2. For the same compound, in test [2], the “Residual Activity Lizard” value is listed as “P(-)” and the “Biological Potency Lizard” value stood at 8.0.
Turning to `CCCC[C@H](NC(C)=O)C(=O)N[C@@H](CC(=O)O)C(=O)N[C@@H](Cc1c[nH]cn1)C(=O)N[C@H](Cc1ccccc1)C(=O)N[C@@H](CCCNC(=N)N)C(=O)N[C@@H](Cc1c[nH]c2ccccc12)C(=O)N[C@@H](CCCCN)C(N)=O` [Analogue 7], in test [2], the “Residual Activity Lizard” value is “P(-)” and the “Biological Potency Lizard” value is recorded as 8.0.
With `CCCC[C@H](NC(C)=O)C(=O)N[C@@H](CC(=O)O)C(=O)N[C@@H](Cc1c[nH]cn1)C(=O)N[C@@H](Cc1ccccc1)C(=O)N[C@@H](CCCNC(=N)N)C(=O)N[C@@H](Cc1c[nH]c2ccccc12)C(=O)N[C@@H](CCCCN)C(N)=O` [Analogue 14], in test [2], the “Residual Activity Lizard” value is listed as “P(-)” and the “Biological Potency Lizard” value is recorded as 0.08.
